Legend:
[1] = Cytotoxicity, MTT test, SH-SY5Y; format: cell-based; conditions: human, SH-SY5Y cells (human neuroblastoma)
Protocol: (§1) Hepatotoxicity, neurotoxicity, and glial cytotoxicity were investigated using the following cellular models: human hepatocellular carcinoma (HepG2), human neuroblastoma (SHSY-5Y), and mouse astrocytes (C8-D1A), all from ATCC (American Type Culture Collection, Manassas, VA, USA). Cells were cultured in appropriate culture media recommended by ATCC supplemented with 10% fetal bovine serum (FBS; Gibco, Life Technologies, Carlsbad, CA, USA) and 1% antibiotic mixture (Gibco, Life Technologies, Carlsbad, CA, USA). Cells were cultured at standard conditions (5% CO2, 95% humidity, 37 °C). For cytotoxicity experiments, cells were seeded into 96 well plates at an initial density of 2000 cells/well. After overnight incubation, cells were treated with 3e, 3f, and 3g in a concentration range of 0.78–50 µM for 48 h; then, an MTT assay was performed as described previously. Briefly, following cell exposure, 10 µL of MTT reagent was added to each well. After the next 4 h, the medium was aspirated, and formazan produced in cells appeared as dark crystals in the bottom of the wells. Next, 100 µL DMSO was added to each well. Then, the optical density of the solution (OD) at 570 nm was determined on a plate reader (Spectra Max iD3, Molecular Devices, San Jose, CA, USA). The experiments were run three times in triplicates.

5-HT6R [2] = target: T1, 5-HT6R (Homo sapiens, UniProt P50406); experiment: Basal cAMP production by constitutively active 5-HT6R in NG108-15 cells (CAMYEL BRET); format: cell-based; design: expressed in transfected cells; host or cells: NG108-15 (mouse neuroblastoma x rat glioma hybrid), transient co-transfection with CAMYEL, Lipofectamine 2000; conditions: NG108-15 cells transiently expressing 5-HT6R
T1 sequence (P50406 whole entry): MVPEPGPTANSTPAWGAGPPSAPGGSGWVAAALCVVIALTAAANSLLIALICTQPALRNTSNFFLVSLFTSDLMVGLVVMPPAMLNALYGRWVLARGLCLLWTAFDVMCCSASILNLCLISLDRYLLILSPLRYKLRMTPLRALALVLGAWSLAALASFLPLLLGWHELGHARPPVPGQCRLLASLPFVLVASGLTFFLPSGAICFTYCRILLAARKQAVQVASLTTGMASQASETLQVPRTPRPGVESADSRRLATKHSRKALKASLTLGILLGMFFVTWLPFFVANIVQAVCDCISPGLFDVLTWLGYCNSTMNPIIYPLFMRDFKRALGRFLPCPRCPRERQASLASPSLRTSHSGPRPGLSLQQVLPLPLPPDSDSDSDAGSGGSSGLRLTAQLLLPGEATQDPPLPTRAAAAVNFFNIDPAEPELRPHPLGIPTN
Protocol: Changes in cyclic AMP levels upon exposure to increasing concentrations of the tested compounds were assessed by BRET (Bioluminescence Resonance Energy Transfer) measurement using a Mithras LB 940 plate reader (Berthold Technologies), as previously described. A detailed description is reported in the Supporting Information.
2. Procedure for determination of functional activity at Gs signaling
2.1. Impact of compound 3e, 3f and 3g on cAMP production in 1321N1 cells The properties of evaluated compounds to inhibit cAMP production induced by 5-CT (1000 nM), a 5-HT6R agonist, was assessed according to previously published procedures. The level of cAMP was measured using frozen recombinant 1321N1 cells expressing the human serotonin 5-HT6R (PerkinElmer). Total cAMP was measured using the LANCE cAMP detection kit (PerkinElmer), according to the manufacturer's recommendations. For quantification of cAMP levels, 2000 cells/well (5 μL) were incubated with mixture of compound 3e, 3f and 3g (5 μL) for 30 min at room temperature in 384-well white opaque microtiter plate. After incubation, the reaction was stopped and cells were lysed by the addition of 10 μL of working solution (5 μL Eu-cAMP and 5 μL ULight-anti-cAMP) for 1 h at room temperature. Time-resolved fluorescence resonance energy transfer (TR-FRET) was detected by an Infinite M1000 Pro (Tecan) using instrument settings from LANCE cAMP detection kit manual. Compound was tested in triplicate at 8 concentrations (10-11–10-4 M). Kb values were calculated from Cheng–Prusoff equation specific for the analysis of functional inhibition curves:
Kb = IC50/(1+A/EC50) where A represents agonist concentration, IC50 the concentration of antagonist producing a 50% reduction in the response to agonist, and EC50 the agonist concentration which causes a half of the maximal response.
1.1.1. Impact of evaluated compounds on cAMP production elicited by constitutively active […]
BRET was measured using a Mithras LB 940 plate reader (Berthold Technologies). […]

[3] = Cytotoxicity, MTT test, HepG2; format: cell-based; conditions: human, HepG2 cells (human hepatocellular carcinoma)
Protocol: as §1

[4] = target: T2, human serotonin 5-HT2A receptor (Homo sapiens, UniProt P28223); experiment: Radioligand binding, [3H]-ketanserin displacement, CHO-K1 cells; conditions: mean ± SEM, three independent binding experiments; read-out: Ki [nM] 5-HT2AR
T2 construct: host or cells: CHO-K1
T2 sequence (P28223 whole entry): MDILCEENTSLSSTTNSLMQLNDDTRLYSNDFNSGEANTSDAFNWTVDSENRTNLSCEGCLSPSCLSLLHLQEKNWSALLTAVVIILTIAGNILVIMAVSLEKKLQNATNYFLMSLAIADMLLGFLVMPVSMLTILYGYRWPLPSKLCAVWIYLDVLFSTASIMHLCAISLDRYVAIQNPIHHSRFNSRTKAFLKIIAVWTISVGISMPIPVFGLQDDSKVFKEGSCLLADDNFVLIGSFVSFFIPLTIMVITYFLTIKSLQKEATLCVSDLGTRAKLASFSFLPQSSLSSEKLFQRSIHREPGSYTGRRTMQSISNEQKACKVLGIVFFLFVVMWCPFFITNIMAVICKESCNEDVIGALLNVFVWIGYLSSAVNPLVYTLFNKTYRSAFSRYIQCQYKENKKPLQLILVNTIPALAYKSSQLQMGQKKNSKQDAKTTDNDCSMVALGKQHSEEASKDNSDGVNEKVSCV

5-HT6R [5] = target: T1, 5-HT6R; experiment: Inhibition of 5-CT-induced cAMP production in 1321N1 cells (LANCE TR-FRET); format: cell-based; design: host or cells: 1321N1 (frozen recombinant cells); conditions: 5-CT as agonist, mean ± SEM, three independent experiments
[6] = Metabolic stability in rat liver microsomes (RLM); format: in vitro ADME; conditions: for microsomal CLint at 20 µM / half-life at 20 µM: male, rat, rat liver microsomes, pH 7.4, protein concentration 0.5 mg/mL; for half-life at 20 µM: read-out: Metabolic Stability t1/2; for Metabolic Stability Major Metabolite: protein concentration 0.5 mg/mL
Protocol: Metabolic stability studies were performed according to reported protocols. […] All samples were analyzed in duplicate.

SMILES | IC50 at 48 h [1] | 5-HT6R Functional Profile at Gs Signaling (5-HT6R [2]) | IC50 at 48 h [3] | Ki [4] | Kb (5-HT6R [5]) | microsomal CLint at 20 µM [6] | half-life at 20 µM [6] | Metabolic Stability Major Metabolite [6]
O=S(=O)(c1cccc(N2CCNCC2)c1)N1Cc2ccccc2C1 [3e, 2-{[3-(Piperazin-1-yl)phenyl]sulfonyl}isoindoline] | 42000 nM | Neutral antagonist | > 50000 nM | 128 ± 37 nM | 0.7 ± 0.2 nM | 3.78 µL/min/mg | 6.12 h | not detected
O=S(=O)(c1cccc(N2CCNCC2)c1)N1Cc2cccc(Cl)c2C1 [3f, 4-Chloro-2-{[3-(piperazin-1-yl)phenyl]sulfonyl}isoindoline] | 38000 nM | Neutral antagonist | > 50000 nM | 170 ± 32 nM | 3.5 ± 0.8 nM | 18 µL/min/mg | 1.28 h | hydroxylated
O=S(=O)(c1cccc(N2CCNCC2)c1)N1Cc2cccc(Br)c2C1 [3g, 4-Bromo-2-{[3-(piperazin-1-yl)phenyl]sulfonyl}isoindoline] | 48000 nM | Neutral antagonist | > 50000 nM | 159 ± 25 nM | 1.6 ± 0.3 nM | 14.7 µL/min/mg | 1.57 h | hydroxylated

— PMC9855333, “1-(Arylsulfonyl-isoindol-2-yl)piperazines as 5-HT6R Antagonists: Mechanochemical Synthesis, In Vitro Pharmacological Properties and Glioprotective Activity” (Biomolecules, 2022)
